# Assay: Stability of moexipril magnesium salt in solid compositions
# Format: physicochemical
# Conditions: solid compositions without an alkaline stabilizing compound in the final composition
structure (smiles),measurement,value
CCOC(=O)[C@H](CCc1ccccc1)N[C@@H](C)C(=O)N1Cc2cc(OC)c(OC)cc2C[C@H]1C(=O)O.[Mg] [moexipril magnesium],stability of the salt,sufficiently stable to enable stable solid compositions

# From patent publication US20020037858A1, “Pharmaceutical compositions comprising moexipril magnesium” (priority 2000, published 2002)
